Assay results from ChEMBL document CHEMBL1201862, “PubChem BioAssay data set” (2004).
Active and inactive are the calls of the source.

Experiments:
Caspase-3 = target: T1, Caspase-3 (Homo sapiens, UniProt P42574); assay type: functional;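 further: Dose-response selectivity test against caspase-3 for candidate inhibitors of sentrin-specific proteases (SENPs)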
T1 sequence (P42574 whole entry): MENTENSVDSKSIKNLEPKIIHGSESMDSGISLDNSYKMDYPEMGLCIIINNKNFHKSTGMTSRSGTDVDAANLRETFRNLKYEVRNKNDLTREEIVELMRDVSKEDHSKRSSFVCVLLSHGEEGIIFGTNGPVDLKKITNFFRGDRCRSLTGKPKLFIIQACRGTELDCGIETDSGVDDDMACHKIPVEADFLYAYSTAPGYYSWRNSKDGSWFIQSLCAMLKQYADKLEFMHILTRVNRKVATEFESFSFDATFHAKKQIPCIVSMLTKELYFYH

[1] = target: T2, Sentrin-specific protease 7 (Homo sapiens, UniProt Q9BQF6); assay type: functional;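 further: Luminescence-based dose-response confirmation of ultra-high-throughput screening hits, measuring inhibition of SENP7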
T2 sequence (Q9BQF6 whole entry): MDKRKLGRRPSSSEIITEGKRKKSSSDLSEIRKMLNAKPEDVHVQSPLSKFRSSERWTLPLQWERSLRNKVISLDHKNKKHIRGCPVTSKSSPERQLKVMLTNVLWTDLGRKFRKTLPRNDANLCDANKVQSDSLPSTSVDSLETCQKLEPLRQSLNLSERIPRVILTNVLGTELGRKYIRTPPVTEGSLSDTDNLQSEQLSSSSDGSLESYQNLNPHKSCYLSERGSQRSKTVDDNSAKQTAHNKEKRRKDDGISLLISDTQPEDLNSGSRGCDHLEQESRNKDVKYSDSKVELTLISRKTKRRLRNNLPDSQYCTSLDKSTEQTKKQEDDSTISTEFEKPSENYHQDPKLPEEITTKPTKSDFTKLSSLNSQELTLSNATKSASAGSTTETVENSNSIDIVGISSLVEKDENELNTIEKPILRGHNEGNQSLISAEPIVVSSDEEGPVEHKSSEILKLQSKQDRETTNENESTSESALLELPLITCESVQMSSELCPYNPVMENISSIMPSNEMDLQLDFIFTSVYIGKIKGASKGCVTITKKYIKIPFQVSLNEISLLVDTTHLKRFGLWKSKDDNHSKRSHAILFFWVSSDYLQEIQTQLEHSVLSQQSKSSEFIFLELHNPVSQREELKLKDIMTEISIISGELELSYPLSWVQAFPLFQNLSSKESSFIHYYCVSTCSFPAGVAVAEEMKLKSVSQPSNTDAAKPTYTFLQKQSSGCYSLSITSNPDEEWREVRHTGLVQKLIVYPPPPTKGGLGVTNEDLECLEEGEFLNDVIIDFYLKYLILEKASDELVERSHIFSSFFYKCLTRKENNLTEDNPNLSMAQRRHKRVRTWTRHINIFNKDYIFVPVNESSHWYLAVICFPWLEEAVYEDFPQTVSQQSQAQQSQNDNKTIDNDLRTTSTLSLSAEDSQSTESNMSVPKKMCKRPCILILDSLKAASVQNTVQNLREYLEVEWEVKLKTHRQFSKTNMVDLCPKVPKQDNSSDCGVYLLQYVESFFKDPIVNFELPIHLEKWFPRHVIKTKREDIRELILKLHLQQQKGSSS

[2] = target: T3, Sentrin-specific protease 6 (Homo sapiens, UniProt Q9GZR1); assay type: functional;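 further: Luminescence-based dose-response confirmatory assay of SENP6 inhibition, following up an ultra-high-throughput screen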
T3 sequence (Q9GZR1 whole entry): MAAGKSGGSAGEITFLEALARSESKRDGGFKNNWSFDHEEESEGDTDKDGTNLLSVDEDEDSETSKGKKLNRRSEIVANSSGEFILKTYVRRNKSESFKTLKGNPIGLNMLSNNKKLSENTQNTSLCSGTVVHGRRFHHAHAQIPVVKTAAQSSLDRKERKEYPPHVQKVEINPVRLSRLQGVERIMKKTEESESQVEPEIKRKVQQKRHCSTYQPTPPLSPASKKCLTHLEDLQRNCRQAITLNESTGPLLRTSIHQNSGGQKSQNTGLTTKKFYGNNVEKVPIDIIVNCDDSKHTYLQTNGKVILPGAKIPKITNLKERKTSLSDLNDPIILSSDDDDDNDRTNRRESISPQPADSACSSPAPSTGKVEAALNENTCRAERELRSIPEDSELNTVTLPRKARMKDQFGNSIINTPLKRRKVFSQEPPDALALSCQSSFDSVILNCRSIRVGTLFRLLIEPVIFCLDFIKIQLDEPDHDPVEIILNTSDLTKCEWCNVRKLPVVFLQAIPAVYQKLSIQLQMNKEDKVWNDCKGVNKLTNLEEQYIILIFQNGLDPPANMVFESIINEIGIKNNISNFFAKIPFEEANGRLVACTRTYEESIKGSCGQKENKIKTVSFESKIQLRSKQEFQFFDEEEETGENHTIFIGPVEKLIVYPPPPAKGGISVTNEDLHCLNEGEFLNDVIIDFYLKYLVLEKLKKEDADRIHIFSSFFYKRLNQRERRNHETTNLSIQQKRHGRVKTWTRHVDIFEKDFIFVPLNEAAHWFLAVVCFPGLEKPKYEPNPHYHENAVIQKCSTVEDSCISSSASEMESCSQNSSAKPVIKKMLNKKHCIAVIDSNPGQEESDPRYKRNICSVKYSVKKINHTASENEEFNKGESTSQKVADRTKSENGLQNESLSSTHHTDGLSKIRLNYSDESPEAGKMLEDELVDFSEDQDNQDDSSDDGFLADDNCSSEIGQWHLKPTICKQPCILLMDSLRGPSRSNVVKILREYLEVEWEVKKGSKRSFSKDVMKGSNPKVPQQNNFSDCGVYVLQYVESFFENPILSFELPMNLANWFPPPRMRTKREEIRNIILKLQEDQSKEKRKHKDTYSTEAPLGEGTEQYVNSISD

[3] = target: T4, Sentrin-specific protease 8 (Homo sapiens, UniProt Q96LD8); assay type: functional;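 further: luminescence read-out of SENP8 inhibition, dose-response confirmation following an ultra-high-throughput screen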
T4 sequence (Q96LD8 whole entry): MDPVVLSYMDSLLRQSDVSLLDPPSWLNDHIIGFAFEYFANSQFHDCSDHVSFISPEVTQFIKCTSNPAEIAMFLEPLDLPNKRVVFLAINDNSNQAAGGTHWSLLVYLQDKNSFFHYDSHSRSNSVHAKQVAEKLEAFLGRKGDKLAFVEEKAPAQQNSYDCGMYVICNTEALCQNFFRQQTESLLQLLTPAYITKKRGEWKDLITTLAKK

[4] = target: T5, Carboxy-terminal domain RNA polymerase II polypeptide A small phosphatase 1 (Homo sapiens, UniProt Q9GZU7); test: inhibitors of CTDSP1, concentration-response testing, biochemical assay, absorbance-based, actives from ultra-high-throughput screening (AID 540297); assay type: functional
T5 sequence (Q9GZU7 whole entry): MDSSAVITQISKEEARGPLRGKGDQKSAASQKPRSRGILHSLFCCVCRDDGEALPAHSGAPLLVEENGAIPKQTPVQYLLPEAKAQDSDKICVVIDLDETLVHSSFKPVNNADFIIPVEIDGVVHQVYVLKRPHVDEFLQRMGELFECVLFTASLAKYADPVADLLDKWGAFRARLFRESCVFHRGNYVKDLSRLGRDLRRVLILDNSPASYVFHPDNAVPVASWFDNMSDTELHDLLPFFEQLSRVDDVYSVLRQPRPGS

[5] = inhibitors of intracellular T. cruzi replication, confirmation, NIH3T3 host cells, beta-gal luminescence (AID 2044); assay type: functional, cell-based;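 further: intracellular parasites grown in NIH/3T3 mouse fibroblasts as host cells; luminescent beta-galactosidase reporter signal from transgenic T. cruzi replicating inside host cells; inhibitors lower the luminescence signal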
[6] = cytotoxicity toward NIH3T3 fibroblasts, dose response, counter-screen, cell-based, ATP luminescence, mouse fibroblasts (AID 2010); assay type: functional;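 further: cells exposed to compound for about 90 hours before reading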
Vero = test: cells; assay type: functional; settings: Chlorocebus sabaeus
[7] = target: T6, DNA repair protein RAD52 homolog (Homo sapiens, UniProt P43351); assay type: functional, biochemical
T6 sequence (P43351 whole entry): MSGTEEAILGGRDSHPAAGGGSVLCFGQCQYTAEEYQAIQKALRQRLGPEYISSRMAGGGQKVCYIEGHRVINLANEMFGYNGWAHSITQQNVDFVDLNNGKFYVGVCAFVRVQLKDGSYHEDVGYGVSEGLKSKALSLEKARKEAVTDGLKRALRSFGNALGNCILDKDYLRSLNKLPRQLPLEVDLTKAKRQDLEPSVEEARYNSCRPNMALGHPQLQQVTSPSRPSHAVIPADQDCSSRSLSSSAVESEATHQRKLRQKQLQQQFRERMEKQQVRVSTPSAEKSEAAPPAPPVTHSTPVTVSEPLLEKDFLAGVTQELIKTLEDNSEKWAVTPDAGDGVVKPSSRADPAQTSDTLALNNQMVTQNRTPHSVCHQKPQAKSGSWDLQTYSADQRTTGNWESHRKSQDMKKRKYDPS

BJ [8] = test: cytotoxicity toward BJ-TERT fibroblasts, dose response, cell-based, RAS-independent, luminescence (AID 1933); assay type: functional; settings: Homo sapiens
BJ [9] = test: cells; assay type: functional, cell-based; settings: Homo sapiens
BJ [10] = test: cytotoxicity toward BJ-TERT-LT-ST fibroblasts, dose response, cell-based, RAS-independent, luminescence (AID 1935); assay type: functional; settings: Homo sapiens;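 further: BJ fibroblasts immortalized with TERT plus LT and ST oncogenes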
[11] = cytotoxicity toward DRD oncogenic fibroblasts, dose response, cell-based, non-viral oncogenic, luminescence (AID 1934); assay type: functional; settings: Homo sapiens
BJ [12] = test: cytotoxicity toward Ras-transformed BJeLR fibroblasts, dose response, cell-based, alamar blue fluorescence, cherrypicked samples (AID 2631); assay type: functional; settings: Homo sapiens;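 further: confirmatory dose-response assay in RAS-dependent BJ fibroblasts engineered with TERT, LT and ST, with cytotoxicity read by fluorescence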
Fatty acid synthase [13] = target: T7, Fatty acid synthase (Homo sapiens, UniProt P49327); test: FAS thioesterase domain inhibitors, dose response, biochemical, endpoint fluorescence intensity, uHTS hits (AID 624327); assay type: functional;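 further: fluorescence from hydrolysis of an O-methyl fluorescein acyl ester substrate by the enzyme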
T7 sequence (P49327 whole entry, the tested form may be a part): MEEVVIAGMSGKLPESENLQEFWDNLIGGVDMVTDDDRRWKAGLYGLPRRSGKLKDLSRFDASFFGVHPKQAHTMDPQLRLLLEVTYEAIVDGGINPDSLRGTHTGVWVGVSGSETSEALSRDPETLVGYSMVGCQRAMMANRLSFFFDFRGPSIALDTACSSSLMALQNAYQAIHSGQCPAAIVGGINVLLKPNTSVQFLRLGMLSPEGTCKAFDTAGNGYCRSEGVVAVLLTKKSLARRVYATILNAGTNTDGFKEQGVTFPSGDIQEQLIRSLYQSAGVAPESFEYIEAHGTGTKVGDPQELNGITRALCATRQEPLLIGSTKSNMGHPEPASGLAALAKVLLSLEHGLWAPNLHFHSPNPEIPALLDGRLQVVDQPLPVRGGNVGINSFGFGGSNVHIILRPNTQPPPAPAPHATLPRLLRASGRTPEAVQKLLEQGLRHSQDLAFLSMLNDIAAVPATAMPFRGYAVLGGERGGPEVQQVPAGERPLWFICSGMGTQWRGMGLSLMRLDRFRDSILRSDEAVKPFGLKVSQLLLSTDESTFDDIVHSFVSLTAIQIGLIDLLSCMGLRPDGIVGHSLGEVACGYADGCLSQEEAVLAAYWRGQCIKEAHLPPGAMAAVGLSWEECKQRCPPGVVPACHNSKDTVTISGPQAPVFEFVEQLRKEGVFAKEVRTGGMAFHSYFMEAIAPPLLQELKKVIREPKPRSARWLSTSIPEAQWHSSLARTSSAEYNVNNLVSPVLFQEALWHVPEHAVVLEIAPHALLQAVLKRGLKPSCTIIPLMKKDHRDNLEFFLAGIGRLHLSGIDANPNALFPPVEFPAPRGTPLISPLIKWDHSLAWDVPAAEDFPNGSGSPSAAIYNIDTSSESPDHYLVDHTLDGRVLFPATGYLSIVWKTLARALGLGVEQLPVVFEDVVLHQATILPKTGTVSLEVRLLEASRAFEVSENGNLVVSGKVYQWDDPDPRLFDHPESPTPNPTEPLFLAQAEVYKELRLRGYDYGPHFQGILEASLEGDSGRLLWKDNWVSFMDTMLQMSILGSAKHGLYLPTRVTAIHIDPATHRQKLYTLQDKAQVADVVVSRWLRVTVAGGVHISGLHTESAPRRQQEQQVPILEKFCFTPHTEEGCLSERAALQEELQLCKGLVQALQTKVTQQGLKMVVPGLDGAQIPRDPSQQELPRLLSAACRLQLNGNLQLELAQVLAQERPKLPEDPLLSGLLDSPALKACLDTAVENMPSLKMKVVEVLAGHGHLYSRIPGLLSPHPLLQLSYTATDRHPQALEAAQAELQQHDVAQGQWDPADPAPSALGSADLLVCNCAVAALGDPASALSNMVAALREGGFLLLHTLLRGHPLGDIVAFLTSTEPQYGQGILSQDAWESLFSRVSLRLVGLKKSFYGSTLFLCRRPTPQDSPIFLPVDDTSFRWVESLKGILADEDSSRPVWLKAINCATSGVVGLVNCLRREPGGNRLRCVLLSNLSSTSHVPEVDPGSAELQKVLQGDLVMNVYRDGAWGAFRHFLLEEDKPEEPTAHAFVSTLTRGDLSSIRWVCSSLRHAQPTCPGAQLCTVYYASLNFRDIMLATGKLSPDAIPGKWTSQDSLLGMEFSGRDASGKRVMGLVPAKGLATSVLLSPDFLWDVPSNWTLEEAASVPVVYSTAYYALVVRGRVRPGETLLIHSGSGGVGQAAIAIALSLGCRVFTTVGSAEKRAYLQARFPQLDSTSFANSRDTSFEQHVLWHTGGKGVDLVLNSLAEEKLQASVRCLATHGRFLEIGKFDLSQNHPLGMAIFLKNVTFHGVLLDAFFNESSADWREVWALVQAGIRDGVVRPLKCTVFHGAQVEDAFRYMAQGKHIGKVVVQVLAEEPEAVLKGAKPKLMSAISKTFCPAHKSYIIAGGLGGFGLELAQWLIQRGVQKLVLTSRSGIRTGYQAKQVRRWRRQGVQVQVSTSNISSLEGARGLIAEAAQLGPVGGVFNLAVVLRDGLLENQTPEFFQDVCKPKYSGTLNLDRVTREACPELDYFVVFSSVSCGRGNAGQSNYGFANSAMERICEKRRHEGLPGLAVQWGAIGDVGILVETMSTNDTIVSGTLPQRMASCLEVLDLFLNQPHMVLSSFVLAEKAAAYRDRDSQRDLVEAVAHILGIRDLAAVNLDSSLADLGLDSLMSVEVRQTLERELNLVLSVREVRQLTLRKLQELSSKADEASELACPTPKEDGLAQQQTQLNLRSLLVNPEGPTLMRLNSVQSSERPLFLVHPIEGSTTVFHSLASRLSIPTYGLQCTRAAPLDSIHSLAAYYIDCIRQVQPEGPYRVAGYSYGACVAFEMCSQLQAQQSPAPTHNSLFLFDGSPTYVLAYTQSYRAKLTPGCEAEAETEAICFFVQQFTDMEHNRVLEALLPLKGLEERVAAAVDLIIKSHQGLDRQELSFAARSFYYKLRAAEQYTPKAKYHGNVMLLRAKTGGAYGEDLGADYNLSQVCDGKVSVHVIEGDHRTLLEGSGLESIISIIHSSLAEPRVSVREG

Fatty acid synthase [14] = target: T7, Fatty acid synthase; test: FAS thioesterase domain inhibitors, dose response, biochemical, kinetic fluorescence intensity (AID 624326); assay type: functional;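 further: rate of fluorescence rise from hydrolysis of a fluorogenic O-methyl fluorescein ester substrate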
[15] = target: T8, RNA-binding protein pos-1 (Caenorhabditis elegans, UniProt G5EF15); test: inhibitors of POS-1/mex-3 RNA binding, dose response, biochemical, fluorescence polarization (AID 1964);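 further: purified POS-1 fused to maltose binding protein made in E. coli; potency of compounds blocking POS-1 binding to fluorescent RNA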
T8 sequence (G5EF15 whole entry): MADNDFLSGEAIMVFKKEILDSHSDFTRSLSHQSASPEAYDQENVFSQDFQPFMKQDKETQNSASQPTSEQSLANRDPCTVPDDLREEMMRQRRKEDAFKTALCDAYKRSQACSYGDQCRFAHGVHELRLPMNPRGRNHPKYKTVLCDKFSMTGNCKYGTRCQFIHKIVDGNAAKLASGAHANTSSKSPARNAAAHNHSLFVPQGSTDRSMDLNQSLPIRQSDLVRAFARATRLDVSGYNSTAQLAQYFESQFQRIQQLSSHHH

[16] = target: T9, Zinc finger protein mex-5 (Caenorhabditis elegans, UniProt Q9XUB2); test: MEX-5/TCR-2 RNA interaction inhibitors, dose response, biochemical, C. elegans, fluorescence polarization (AID 1960)
T9 sequence (Q9XUB2 whole entry): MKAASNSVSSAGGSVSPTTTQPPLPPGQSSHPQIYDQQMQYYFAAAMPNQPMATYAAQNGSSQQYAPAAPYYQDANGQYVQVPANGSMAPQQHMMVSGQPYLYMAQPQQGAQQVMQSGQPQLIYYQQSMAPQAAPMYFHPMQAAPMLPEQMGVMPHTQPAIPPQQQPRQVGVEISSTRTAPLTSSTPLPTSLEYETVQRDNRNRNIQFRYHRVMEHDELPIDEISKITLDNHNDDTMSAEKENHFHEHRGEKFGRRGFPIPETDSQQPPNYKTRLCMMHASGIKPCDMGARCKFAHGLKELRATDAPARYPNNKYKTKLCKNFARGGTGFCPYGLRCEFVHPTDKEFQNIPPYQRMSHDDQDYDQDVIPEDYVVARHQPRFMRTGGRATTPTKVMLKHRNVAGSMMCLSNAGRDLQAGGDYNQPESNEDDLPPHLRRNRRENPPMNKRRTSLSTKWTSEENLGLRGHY

COc1ccc(-c2nnc(SCc3ccccc3F)o2)cc1
IC50 (Caspase-3): 16.1 µM (active)
IC50 [1]: 4.23 µM (active)
IC50 [2]: 12 µM (active)
IC50 [3]: 12.2 µM (active)

c1ccc(Nc2nnc(-c3cccc4ccccc34)o2)cc1
IC50 (Caspase-3): > 100 µM (inactive)
IC50 [1]: > 100 µM (inactive)
IC50 [2]: > 100 µM (inactive)
IC50 [3]: > 100 µM (inactive)

Cc1ccc(S(=O)(=O)N2CCN(C(=O)/C=C/c3ccco3)CC2)cc1
IC50 [4]: 10.2 µM (active)

Cc1cc(N2CCCC2)nc2ccc(NC(S)=NCCCN3CCC(C)CC3)cc12
EC50 [5]: 2.03 µM (active)
EC50 [6]: 14.2 µM (active)
CC50 (Vero): > 25 µM (active)
AC50 [7]: 2.27 µM (active)

Brc1nc(-c2ccccc2)nc(-c2ccccc2)c1Br
EC50 (BJ [8]): 8.57 µM (inconclusive)
EC50 (BJ [9]): 14 µM (active)
EC50 (BJ [10]): 7.93 µM (inconclusive)
EC50 [11]: 10.2 µM (active)
EC50 (BJ [12]): 4.95 µM (active)

Cc1nnc(SCC2=C(C(=O)O)N3C(=O)C(NC(=O)Cn4nc(C(F)F)cc4C)C3SC2)s1 (stereo not drawn)
IC50 [4]: 7.83 µM (active)

COC(=O)c1ccc(CSc2nc(C(F)F)cc(C)c2C#N)o1
IC50 (Fatty acid synthase [13]): 17.2 µM (active)
IC50 (Fatty acid synthase [14]): 18.6 µM (active)

Cc1cc(-c2ccc(C(C)C)c(S(=O)(=O)NCc3ccco3)c2)on1
CC50 (Vero): 6.78 µM (active)

CN1CCN(CC(O)(c2ccc(Cl)cc2)c2ccc(Cl)cc2)CC1
CC50 (Vero): > 25 µM (active)

CCCNC(=O)N1c2ccccc2Sc2ccccc21
CC50 (Vero): > 25 µM (active)

CNc1[nH]c(=O)[nH]c(=O)c1N=Nc1cc(Cl)ccc1Cl
IC50 [4]: 11.6 µM (active)

Cc1c(CCC(=O)O)c(=O)oc2cc(OCc3ccc(Br)cc3)ccc12
IC50 [4]: 7.23 µM (active)

O=C(/C=C/c1ccc(F)cc1)NNC(=O)CCN1CCN(Cc2ccccc2)CC1
EC50 (BJ [8]): 19.1 µM (active)
EC50 (BJ [9]): 3.53 µM (active)
EC50 (BJ [10]): 2.15 µM (active)
EC50 [11]: 2.92 µM (active)
EC50 (BJ [12]): > 133 µM (inactive)

CC1CCN(C(=O)CCN2C(=O)/C(=C/c3cccs3)SC2=S)CC1
EC50 [15]: > 300 µM (not active)
EC50 [16]: > 300 µM (not active)
CC50 (Vero): 17.3 µM (active)

CC1=C(C(=O)OCC(Br)(Br)Br)C(c2cccc([N+](=O)[O-])c2)NC(=O)N1CCCC(=O)O (stereo not drawn)
IC50 (Fatty acid synthase [13]): 7.69 µM (active)
IC50 (Fatty acid synthase [14]): 5.05 µM (active)

O=C1NC(=S)NC(=O)C1=Cc1ccc(OCC(=O)N2CCCC2)cc1
IC50 [4]: 9 µM (active)

O=[N+]([O-])c1ccc(S(=O)(=O)NN=Cc2ccc3c(c2)OCO3)cc1
IC50 (Fatty acid synthase [13]): 5.4 µM (active)
IC50 (Fatty acid synthase [14]): 5.8 µM (active)

O=C(Nc1cccc(F)c1)c1ccc(-c2ccccc2Cl)o1
IC50 (Caspase-3): 47 µM (active)
IC50 [1]: 7.07 µM (active)
IC50 [2]: 42 µM (active)
IC50 [3]: 53.7 µM (active)
